The nature of series [1]: Delivery vehicle size and polydispersity by dynamic light scattering. It is filed as physicochemical. The method in brief: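 Dynamic light scattering in PBS gave size and polydispersity of peptoid LNPs. These were dialyzed overnight at 4 °C into tris-sucrose buffer pH 7.4 after microfluidic 1:3 volume mixing of mRNA in pH 5.0 citrate with ethanol lipids (peptoid:DSPC:cholesterol:DMG-PEG2000 20:1.79:7.16:1.84 w/w).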

For series [2], the system named is mRNA. As to the kind of experiment: mRNA encapsulation (modified Quant-iT RiboGreen assay). It counts as physicochemical. The following applies: for mean percent encapsulation of RNA: RiboGreen, without vs with Triton X-100; for % Encapsulation: mRNA. The method in brief:
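Encapsulated fraction was calculated by comparing RiboGreen signal (excitation 485 nm, emission 530 nm) of intact particles with that of particles lysed by a 10-min Triton X-100 treatment. Total mRNA concentration was taken from the lysed samples.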

The test system of series [3] is firefly luciferase. As to the kind of experiment: In vivo firefly luciferase expression after intravenous injection of fLuc mRNA delivery vehicles (IVIS imaging). On the set-up: species or system female Balb/c mice. The following applies: for Total Flux (luciferase expression): fLuc mRNA, intravenous, Balb/c mice; for Total Flux: mice, 2.5 ug fLuc mRNA intravenously, 6 hours post-injection. An outline of the steps: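 Read-out is total photon flux per region of interest, from whole-body IVIS images taken 10 minutes after IP D-luciferin (30 mg/mL, 10 μL/g) and from excised organs. Female Balb/c mice aged 6-8 weeks received 2.5 ug fLuc mRNA Nutshells intravenously 6 hours before imaging.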

In series [4] the test system is hEPO. As to the kind of experiment: Quantification of hEPO in serum after IV injection of mRNA (Human EPO ELISA). The following applies: Balb/c mice, 2.5 μg mRNA IV, serum after 6 hours. It is filed as in vivo. The method in brief:
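Balb/c mice received 2.5 μg mRNA encoding human EPO by IV injection; serum was collected after 6 hours. hEPO was measured by sandwich ELISA (biotin-conjugate, streptavidin-HRP, TMB, A450) against kit standards (mIU/mL) and an external standard (ng/mL), with values interpolated and corrected for dilution.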

Series [5] is described as follows: Peptoid quantity remaining in liver by HPLC-TOF mass spectrometry. It counts as in vivo. The following applies: liver homogenate. The method in brief: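 Whole liver weighed; 20 mg tissue bead-homogenized in IPA/MeOH (8/2) with internal standard, centrifuged, supernatant run on BEH C8 HPLC-TOF MS. Peptoid concentration derived from linear calibration curve (0.2-50 μg/g) prepared in spiked untreated liver.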

The subject of series [6] is luciferase. As to the kind of experiment: Luciferase expression after local (intramuscular or subcutaneous) administration of mRNA. The following applies: mRNA 0.01 mpk, 6 hours; for IM Flux: intramuscular; for SC Flux: subcutaneous. It counts as in vivo. An outline of the steps:
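Bioluminescence read 6 hours after fLuc mRNA dosing (peptoid Nutshells; 0.01 mpk S.C. or I.M., 0.1 mpk intratumoral) in female Balb/c mice aged 6-8 weeks. D-luciferin injected IP, whole-body imaging after 10 minutes, then organ imaging; total photon flux per region of interest.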

[7] abbreviates: DLS in PBS, peptoid:DSPC:Cholesterol:DMG-PEG2000 weight ratio 20:1.79:7.16:1.84, mRNA.

Structures are written as SMILES. Non-standard residues stand in square brackets, D forms with d. Residues, ends and D or L forms follow the SMILES beside them. *: point of attachment. Gly(N-(3-decanoyloxypropyl)) = CCCCCCCCCC(=O)OCCCNCC(=O)O; N(3-lauroyloxypropyl)Gly = CCCCCCCCCCCC(=O)OCCCNCC(=O)O; Gly(N-(CH2)3O-octanoyl) = CCCCCCCC(=O)OCCCNCC(=O)O; N(3-imidazol-1-ylpropyl)Gly = O=C(O)CNCCCn1ccnc1; Gly(N-3-morpholinopropyl) = O=C(O)CNCCCN1CCOCC1; N(2-ethylhexyl)Gly = CCCCC(CC)CNCC(=O)O; Gly(N-dodecyl) = CCCCCCCCCCCCNCC(=O)O; N(CH(CH2OH)2)Gly = O=C(O)CNC(CO)CO; N(octyl)Gly = CCCCCCCCNCC(=O)O; For = O=C*

As for `CCCCCCCCCC(=O)OCCCN(CC(=O)N(CC(N)=O)CC(CC)CCCC)C(=O)CN(CCCCCCCC)C(=O)CN(CC(CC)CCCC)C(=O)CN(CCCOC(=O)CCCCCCCCC)C(=O)CN(CCCCCCCC)C(=O)CNC(CO)CO` (stereo not drawn) [Compound 32] (H-[N(CH(CH2OH)2)Gly][N(octyl)Gly][Gly(N-(3-decanoyloxypropyl))][N(2-ethylhexyl)Gly][N(octyl)Gly][Gly(N-(3-decanoyloxypropyl))][N(2-ethylhexyl)Gly]-NH2), the PDI in series [1] (setting [7]) stood at 0.156. Moreover, the “Particle Size” value in series [1] (setting [7]) was found to be 89.3 nm; in series [1] (formulation recipe D22) it was 89.3 nm; in series [1] (formulation recipe R2), 71.0 nm; in series [1] (formulation recipe R5), 65.5 nm; in series [1] (formulation recipe R6), 68.4 nm; in series [1] (formulation recipe R7) it was 65.1 nm. In series [1] (formulation recipe R9), the “Particle Size” value is 64.9 nm. Besides, in series [2], the “mean percent encapsulation of RNA” value is on record as 59.3%. Besides, the “% Encapsulation” value is on record as 59.3% in series [2] (formulation recipe D22); 88.2% in series [2] (formulation recipe R2); 86.0% in series [2] (formulation recipe R5); 93.7% in series [2] (formulation recipe R6); 79.1% in series [2] (formulation recipe R7); 92.7% in series [2] (formulation recipe R9). The “Total Flux (luciferase expression)” value in series [3] (formulation recipe D22) was 7.45E+09 p/s; in series [3] (formulation recipe R2), 7.39E+08 p/s; in series [3] (formulation recipe R5), 5.34E+08 p/s; in series [3] (formulation recipe R6) it was 9.19E+08 p/s; in series [3] (formulation recipe R7), 1.41E+09 p/s; in series [3] (formulation recipe R9), 8.16E+08 p/s. Also, in series [3], the “Total Flux” value came to 7.45E+09 p/s. Besides, the hEPO in series [4] came out at 642 ng/mL. Also, the “% of injected dose remaining in liver” value in series [5] worked out at 8.18%. Also, the “IM Flux” value in series [6] was determined as 1.45E+08 p/s. Besides, in series [6], the “SC Flux” value is recorded as 9.18E+08 p/s.

With `CCCCCCCCCC(=O)OCCCN(CC(=O)N(CC(=O)N(CC(=O)N(CCCOC(=O)CCCCCCCCC)CC(=O)N(CC(N)=O)CC(CC)CCCC)CC(CC)CCCC)CC(CC)CCCC)C(=O)CN(CC(CC)CCCC)C(=O)CN(C=O)CCCN1CCOCC1` (stereo not drawn) [Compound 106] (For-[Gly(N-3-morpholinopropyl)][N(2-ethylhexyl)Gly][Gly(N-(3-decanoyloxypropyl))][N(2-ethylhexyl)Gly][N(2-ethylhexyl)Gly][Gly(N-(3-decanoyloxypropyl))][N(2-ethylhexyl)Gly]-NH2), in series [1] (setting [7]), the PDI came out at 0.155 and the “Particle Size” value was found to be 91.5 nm. The “mean percent encapsulation of RNA” value in series [2] is on record as 80.0%. Further, in series [3], the “Total Flux” value is 6.71E+09 p/s. This molecule also returned a hEPO in series [4] of 471 ng/mL. Also, in series [5], the “% of injected dose remaining in liver” value was found to be 5.86%. In series [6], the “IM Flux” value came to 1.07E+08 p/s and the “SC Flux” value amounted to 1.70E+08 p/s.

Turning to `CCCCCCCCCCCCN(C=O)CC(=O)N(CCCOC(=O)CCCCCCC)CC(=O)N(CC(=O)N(CCCN1CCOCC1)CC(=O)N(CC(=O)N(CCCOC(=O)CCCCCCC)CC(=O)N(CCCCCCCCCCCC)CC(N)=O)CC(CC)CCCC)CC(CC)CCCC` (stereo not drawn) [Compound 116] (For-[Gly(N-dodecyl)][Gly(N-(CH2)3O-octanoyl)][N(2-ethylhexyl)Gly][Gly(N-3-morpholinopropyl)][N(2-ethylhexyl)Gly][Gly(N-(CH2)3O-octanoyl)][Gly(N-dodecyl)]-NH2), in series [1] (setting [7]), the PDI is recorded as 1.000 and the “Particle Size” value is 88.9 nm. Also, in series [1] (formulation recipe F2), the “Particle Size” value is given as 71.4 nm. Moreover, in series [2], the “mean percent encapsulation of RNA” value came out at 32.6%. Also, the “% Encapsulation” value in series [2] (formulation recipe F2) came to 67.8%. In series [3] (formulation recipe F2), the “Total Flux (luciferase expression)” value worked out at 1.60E+09 p/s. In series [3], the “Total Flux” value came out at 3.82E+09 p/s. The hEPO in series [4] is 269 ng/mL. The “% of injected dose remaining in liver” value in series [5] is 15.67%. Moreover, in series [6], the “IM Flux” value worked out at 7.83E+07 p/s and the “SC Flux” value is 3.53E+08 p/s.

Take `CCCCCCCCCC(=O)OCCCN(CC(=O)N(CC(=O)N(CC(=O)N(CCCOC(=O)CCCCCCCCC)CC(=O)N(CC(N)=O)CC(CC)CCCC)CC(CC)CCCC)CC(CC)CCCC)C(=O)CN(CC(CC)CCCC)C(=O)CNCCCn1ccnc1` (stereo not drawn) [Compound 107] (H-[N(3-imidazol-1-ylpropyl)Gly][N(2-ethylhexyl)Gly][Gly(N-(3-decanoyloxypropyl))][N(2-ethylhexyl)Gly][N(2-ethylhexyl)Gly][Gly(N-(3-decanoyloxypropyl))][N(2-ethylhexyl)Gly]-NH2): in series [1] (setting [7]), the PDI turned out to be 0.140 and the “Particle Size” value was determined as 77.4 nm. In addition, in series [2], the “mean percent encapsulation of RNA” value is recorded as 96.1%. Also, the “Total Flux” value in series [3] stood at 2.01E+09 p/s. In series [4], the hEPO stood at 268 ng/mL. The “% of injected dose remaining in liver” value in series [5] was 47.20%. Further, in series [6], the “IM Flux” value is on record as 7.22E+07 p/s and the “SC Flux” value turned out to be 7.41E+07 p/s.

Take `CCCCCCCCCCCC(=O)OCCCN(CC(=O)N(CC(=O)N(CCCN1CCOCC1)CC(=O)N(CC(=O)N(CCCOC(=O)CCCCCCCCCCC)CC(=O)N(CC(N)=O)CC(CC)CCCC)CC(CC)CCCC)CC(CC)CCCC)C(=O)CN(C=O)CC(CC)CCCC` (stereo not drawn) [Compound 80] (For-[N(2-ethylhexyl)Gly][N(3-lauroyloxypropyl)Gly][N(2-ethylhexyl)Gly][Gly(N-3-morpholinopropyl)][N(2-ethylhexyl)Gly][N(3-lauroyloxypropyl)Gly][N(2-ethylhexyl)Gly]-NH2): the PDI in series [1] (setting [7]) worked out at 0.109. For the same molecule, the “Particle Size” value in series [1] (setting [7]) came out at 78.1 nm; in series [1] (formulation recipe D22), 78.1 nm; in series [1] (formulation recipe O1) it was 68.2 nm; in series [1] (formulation recipe O5), 68.5 nm. Moreover, in series [2], the “mean percent encapsulation of RNA” value is 65.7%. Moreover, the “% Encapsulation” value in series [2] (formulation recipe D22) is reported as 65.7%; in series [2] (formulation recipe O1), 80.5%; in series [2] (formulation recipe O5), 82.6%. In addition, the “Total Flux (luciferase expression)” value is reported as 3.74E+09 p/s in series [3] (formulation recipe D22), 2.74E+09 p/s in series [3] (formulation recipe O1) and 2.71E+09 p/s in series [3] (formulation recipe O5). In series [3], the “Total Flux” value is on record as 3.74E+09 p/s. In series [4], the hEPO turned out to be 481 ng/mL. The “% of injected dose remaining in liver” value in series [5] is 13.58%. In series [6], the “IM Flux” value stood at 2.20E+08 p/s. In addition, in series [6], the “SC Flux” value is 4.16E+08 p/s.

With `CCCCCCCCCCCC(=O)OCCCN(CC(=O)N(CC(=O)N(CC(=O)N(CCCOC(=O)CCCCCCCCCCC)CC(=O)N(CC(N)=O)CC(CC)CCCC)CC(CC)CCCC)CC(CC)CCCC)C(=O)CN(CC(CC)CCCC)C(=O)CNC(CO)CO` (stereo not drawn) [Compound 6] (H-[N(CH(CH2OH)2)Gly][N(2-ethylhexyl)Gly][N(3-lauroyloxypropyl)Gly][N(2-ethylhexyl)Gly][N(2-ethylhexyl)Gly][N(3-lauroyloxypropyl)Gly][N(2-ethylhexyl)Gly]-NH2), in series [1] (setting [7]), the PDI was 0.125 and the “Particle Size” value is 83.9 nm. Besides, in series [2], the “mean percent encapsulation of RNA” value came out at 77.1%. The “Total Flux” value in series [3] was found to be 1.67E+09 p/s. In addition, the hEPO in series [4] was 245 ng/mL. Also, in series [5], the “% of injected dose remaining in liver” value is 13.73%. For the same molecule, in series [6], the “IM Flux” value is given as 1.22E+08 p/s and the “SC Flux” value was found to be 1.14E+08 p/s.

Values taken from patent US20260373248A1, “DEGRADABLE PEPTOIDS” (Medici Therapeutics, Inc., priority 2023, published 2026).
